Measured values published in publication PMC5698418 (Nature Communications, 2017).
Counter-ions that a name gives are not always drawn. Like-named read-outs stand apart in the source and are kept apart here. Non-standard residues stand in square brackets, D forms with d. Residues, ends and D or L forms follow the SMILES beside them. dTrp(2-Me) = Cc1[nH]c2ccccc2c1C[C@@H](N)C(=O)O; αMeP = C[C@@]1(C(=O)O)CCCN1

Tested on: BDNF-induced nuclear Arc expression in primary cortical neurons
Assay: Chemogenomic screen: high-content image-based assay of BDNF-induced nuclear Arc expression (96-well)
Format: cell-based, mouse
How it was run: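 DIV13 mouse primary cortical neurons (30,000 cells/well) are treated with compound at 16.7 µM and BDNF, in three biological replicates. Arc and acetyl-H3K9 are immunostained and imaged at ×40, and nuclear Arc signal is quantified automatically using acetyl-H3K9 as the nuclear mask.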

[1] = chemogenomic (SMART) screen, BDNF-induced nuclear Arc expression, primary cortical neurons, BDNF control 19.5
[2] = nuclear Arc-positive cells relative to DMSO + BDNF control, negative values = decrease
[3] = BDNF-induced nuclear Arc expression, primary cortical neurons, chemogenomic screen
[4] = nuclear Arc-positive cells relative to DMSO control (BDNF), negative = decrease

Structure (SMILES) | Percentage of cell with nuclear Arc immunostaining above 2σ threshold [1] [%] | Fold-change — Normalized to DMSO control (BDNF) [2] [fold] | other results
CC#C[C@]1(O)CC[C@H]2[C@@H]3CCC4=CC(=O)CCC4=C3[C@@H](c3ccc(N(C)C)cc3)C[C@@]21C [Mifepristone] | 43.7 | 2.2 | 
CC(=C(CCO)SSCC1CCCO1)N(C=O)Cc1cnc(C)nc1N (stereo in doubt) [Fursultiamine] |  |  | Percentage of cell with nuclear Arc immunostaining above 2σ threshold: 15.4%
CCOc1cc(CC(=O)N[C@@H](CC(C)C)c2ccccc2N2CCCCC2)ccc1C(=O)O [Repaglinide] | 19.5 | 1.0 | 
C[N+](C)(C)C[C@H](O)CC(=O)[O-] [Levocarnitine] |  |  | Percentage of cell with nuclear Arc immunostaining above 2σ threshold [3]: 10.1%
COC1=CC(=O)O[C@@H](/C=C/c2ccccc2)C1 [Kavain] |  | 1.8 | Percentage of cell with nuclear Arc immunostaining above 2σ threshold: 34.3%
Cc1ccc2c(c1)c1c(n2CCc2ccc(C)nc2)CCN(C)C1 [Latrepirdine] | 34.3 | 1.8 | 
CCN[C@H]1CN(CCCOC)S(=O)(=O)c2sc(S(N)(=O)=O)cc21 [Brinzolamide] | 28.3 | 1.5 | 
COc1cc(C(C)=O)ccc1OCCCN1CCC(c2noc3cc(F)ccc23)CC1 [Iloperidone] |  |  | Percentage of cell with nuclear Arc immunostaining above 2σ threshold [3]: 8.3%
Clc1ccc(C23CNCC2C3)cc1Cl (stereo not drawn) [DOV-216,303] |  |  | Percentage of cell with nuclear Arc immunostaining above 2σ threshold: 6.5%; Fold-change — Normalized to DMSO control (BDNF) [4]: -3.0 fold
Cc1nccc2c1[nH]c1ccccc12 [Harmane] |  | 2.0 | Percentage of cell with nuclear Arc immunostaining above 2σ threshold: 38.8%
C[S+]([O-])CCCCN=C=S (stereo not drawn) [Sulforaphane] | 18.2 |  | 
CC[C@]12CCCN3CCc4c(n(c5ccccc45)[C@@](O)(C(=O)OC)C1)[C@@H]32 [Vincamine] | 19.0 |  | 
Cc1[nH]c2ccc(Cl)cc2c1C1=CCNCC1 [EMD-386,088] |  | 1.2 | Percentage of cell with nuclear Arc immunostaining above 2σ threshold: 22.7%
CCN(CC)C(=O)C1(c2ccccc2)CC1CN (stereo not drawn) [Milnacipran] | 13.2 |  | 
CCOC(=O)c1ncn2c1CN(C)C(=O)c1cc(F)ccc1-2 [Flumazenil] | 32.1 | 1.6 | 
O=C(c1ccc2nccnc2c1)N1CCCCC1 [Ampalex] | 40.8 | 2.1 | 
CC[C@H](C)[C@H](NC(=O)[C@H](CO)NC(=O)[C@@H](NC(=O)[C@@H]1CCCN1C(=O)[C@H](C)NC(=O)[C@@H](N)CC(N)=O)C(C)C)C(=O)N1CCC[C@H]1C(=O)N[C@@H](CCC(N)=O)C(=O)O [AL-108] |  |  | Percentage of cell with nuclear Arc immunostaining above 2σ threshold [3]: 8.6%; Fold-change — Normalized to DMSO control (BDNF) [4]: -2.3 fold
CC[C@H](CO)Nc1nc(NCc2ccccc2)c2ncn(C(C)C)c2n1 [Roscovitine] |  |  | Fold-change — Normalized to DMSO control (BDNF): 1.3 fold; Percentage of cell with nuclear Arc immunostaining above 2σ threshold: 24.9%
Cl.c1ccc2c(c1)OCC(C1=NCCN1)O2 (stereo not drawn) [Idazoxan hydrochloride, RX 781094] | 24.1 | 1.2 | 

Structure (SMILES) | Percentage of cell with nuclear Arc immunostaining above 2σ threshold [1] [%] | Fold-change — Normalized to DMSO control (BDNF) [2] [fold] | other results
CC(CN(C)C)CN1c2ccccc2CCc2ccccc21 (stereo not drawn) [Trimipramine maleate] | 21.9 | 1.1 | 
Cc1ccc2c(c1)c1c3n2CCNC3CCC1 (stereo not drawn) [Pirlindole] | 15.3 |  | 
CNC(=O)N1N=C(c2ccc(N)cc2)c2cc3c(cc2CC1C)OCO3 (stereo not drawn) [GYKI-53655] | 35.7 | 1.8 | 
O=c1[nH]c2ccccc2n1C1CCN(CCCC(c2ccc(F)cc2)c2ccc(F)cc2)CC1 [Pimozide] |  |  | Percentage of cell with nuclear Arc immunostaining above 2σ threshold [3]: 1.1%
CC(C)(N)C(=O)N[C@H](COCc1ccccc1)C(=O)N1CCC2(CC1)CN(S(C)(=O)=O)c1ccccc12 [Ibutamoren] |  |  | Percentage of cell with nuclear Arc immunostaining above 2σ threshold [3]: 7.1%
CN(C)CC/C=C1\c2ccccc2CSc2ccccc21 [Dosulepin] | 16.7 |  | 
O=C(NCCN1CCOCC1)c1ccc(Cl)cc1 [Moclobemide] |  |  | Percentage of cell with nuclear Arc immunostaining above 2σ threshold [3]: 8.9%
Cl.O=C(O)C1CCCN(CCC=C(c2ccccc2)c2ccccc2)C1 (stereo not drawn) [SKF 89976A hydrochloride] |  | 1.1 | Percentage of cell with nuclear Arc immunostaining above 2σ threshold: 21.6%
CN(C)CCCOc1nn(Cc2ccccc2)c2ccccc12 [Benzydamine] | 25.2 | 1.3 | 
C[C@]12N[C@H](Cc3ccccc31)c1ccccc12 [Dizocilpine] |  | 1.1 | Percentage of cell with nuclear Arc immunostaining above 2σ threshold: 21.2%
COc1ccc(C(CN(C)C)C2(O)CCCCC2)cc1 (stereo not drawn) [Venlafaxine] |  |  | Percentage of cell with nuclear Arc immunostaining above 2σ threshold: 12.1%
CO[C@]12C[C@@H](COC(=O)c3cncc(Br)c3)CN(C)[C@@H]1Cc1cn(C)c3cccc2c13 [Nicergoline] |  |  | Percentage of cell with nuclear Arc immunostaining above 2σ threshold [3]: 6.1%
C[N+]12CCC(CC1)C(OC(=O)C(O)(c1ccccc1)c1ccccc1)C2 (stereo not drawn) [Clidinium bromide] | 24.4 | 1.2 | 
C[C@H](NC[C@H](O)CP(=O)(O)Cc1ccccc1)c1ccc(Cl)c(Cl)c1 [CGP 55845] |  | 1.3 | Percentage of cell with nuclear Arc immunostaining above 2σ threshold: 24.6%
CCc1c(C)[nH]c2c1C(=O)C(CN1CCOCC1)CC2 (stereo not drawn) [Molindone] | 36.4 | 1.9 | 
Cc1[nH]c2ccccc2c1C[C@@H](NC(=O)[C@@H](N)Cc1cnc[nH]1)C(=O)N[C@@H](C)C(=O)N[C@@H](Cc1c[nH]c2ccccc12)C(=O)N[C@H](Cc1ccccc1)C(=O)N[C@@H](CCCCN)C(N)=O [Hexarelin] (H-H[dTrp(2-Me)]AW[dF]K-NH2) | 17.9 | -1.1 | 
C[C@@]1(C(=O)N[C@@H](CCC(=O)O)C(=O)O)CCCN1C(=O)CN [NNZ-2566] (H-Gly-[αMeP]-Glu-OH) |  |  | Percentage of cell with nuclear Arc immunostaining above 2σ threshold [3]: 6.7%; Fold-change — Normalized to DMSO control (BDNF) [4]: -2.9 fold
CC1Nc2ccc(Cl)cc2S(=O)(=O)N1 (stereo not drawn) [IDRA-21] | 12.2 | -1.6 | 
CC(=O)/N=c1/sc(S(N)(=O)=O)nn1C [Methazolamide] |  |  | Percentage of cell with nuclear Arc immunostaining above 2σ threshold [3]: 11.8%

Structure (SMILES) | Percentage of cell with nuclear Arc immunostaining above 2σ threshold [1] [%] | Fold-change — Normalized to DMSO control (BDNF) [2] [fold] | other results
COc1cc2c(cc1OC)-c1cc3ccc(OC)c(OC)c3c[n+]1CC2 [Palmatine] |  |  | Percentage of cell with nuclear Arc immunostaining above 2σ threshold: 1.1%; Fold-change — Normalized to DMSO control (BDNF) [4]: -17.5 fold
Cc1nc(C(=O)NCC(=O)O)c(O)c2ccc(Oc3ccccc3)cc12 [FG-4592] | 26.8 | 1.4 | 
Cc1cccc(C)c1NC(=O)CN1CCCC1=O [Nefiracetam] | 19.7 | 1.0 | 
CN1CCc2cc3c(cc2[C@H]1[C@@H]1OC(=O)c2c1ccc1c2OCO1)OCO3 [(+)-Bicuculline] |  | 1.1 | Percentage of cell with nuclear Arc immunostaining above 2σ threshold: 20.9%
CN1CCN2c3ccccc3Cc3ccccc3C2C1 (stereo not drawn) [Mianserin] | 18.5 |  | 
Oc1noc2c1CCNC2 [Gaboxadol] |  |  | Percentage of cell with nuclear Arc immunostaining above 2σ threshold: 13.6%
NC(=O)CN1CC(O)CC1=O (stereo not drawn) [Oxiracetam] | 41.5 | 2.1 | 
COc1ccc(C2CNC(=O)C2)cc1OC1CCCC1 (stereo not drawn) [Rolipram] | 21.4 | 1.1 | 
NC(=O)C1=CN([C@@H]2O[C@H](COP(=O)(O)OP(=O)(O)OC[C@H]3O[C@@H](n4cnc5c(N)ncnc54)[C@H](O)[C@@H]3O)[C@@H](O)[C@H]2O)C=CC1 [NADH] | 25.0 | 1.3 | 
CN1C(=O)CC[C@H]1c1cccnc1 [Cotinine] | 30.8 | 1.6 | 
OC(CNc1ccccc1)Cn1c2ccc(Br)cc2c2cc(Br)ccc21 (stereo not drawn) [P7C3] |  |  | Percentage of cell with nuclear Arc immunostaining above 2σ threshold: 1.7%; Fold-change — Normalized to DMSO control (BDNF) [4]: -11.2 fold
COC[C@@H](NC(C)=O)C(=O)NCc1ccccc1 [Lacosamide] |  |  | Percentage of cell with nuclear Arc immunostaining above 2σ threshold: 6.7%
O=c1c(-c2ccc(O)cc2)coc2cc(O)ccc12 [Daidzein] | 40.8 | 2.1 | 
CCCC(CCC)C(=O)O [Valproate] |  |  | Percentage of cell with nuclear Arc immunostaining above 2σ threshold [3]: 8.4%
Cc1nccn1CC1CCc2c(c3ccccc3n2C)C1=O (stereo not drawn) [Ondansetron] | 37.6 | 1.9 | 
CC(=O)[C@H]1CC[C@H]2[C@@H]3CC=C4C[C@@H](O)CC[C@]4(C)[C@H]3CC[C@]12C [Pregnenolone] | 24.4 | 1.2 | 
O=C(c1ccccc1)c1ccc2n1CCC2C(=O)O (stereo not drawn) [Ketorolac] | 36.8 | 1.9 | 
O=C1[C@H]2CCCC[C@H]2C(=O)N1CCCCN1CCN(c2nsc3ccccc23)CC1 [Perospirone] | 17.9 |  | 
